Reference: patent US10576085B2, “Substituted aminopurine compounds, compositions thereof, and methods of treatment therewith” (Signal Pharmaceuticals, LLC, priority 2016, dated 2020)

Tests used:
Test in all cases: Proliferation, CellTiter-Glo, 72 h
Assay type in all cases: cell-based
[1] = tested on: SW48; conditions: Homo sapiens; SW48, CRC; CTNNB1 (S33Y); EGFR (G179S); β-catenin Active
[2] = tested on: Colo 205; conditions: Homo sapiens; Colo 205, CRC; BRAF (V600E); β-catenin status N/A
Protocol: HCC cell lines were treated with DMSO or increasing concentrations of Compound 1 for 72 h. Specifically, Compound 1 at various concentrations in dimethyl sulfoxide (DMSO) was spotted via an acoustic dispenser (EDC ATS-100) into an empty 384-well plate. Compound 1 was spotted in a 10-point serial dilution fashion (3-fold dilution) in duplicate within the plate. Replicates of plates spotted with Compound 1 were made for use with different cell lines. After compound plate replication, all plates were sealed (Agilent ThermoLoc) and stored at −20° C. for up to 1 month. When ready for testing, plates were removed from the freezer, thawed, and unsealed just prior to the addition of the test cells.
Prior to testing, cells were grown and expanded in culture flasks to provide sufficient amounts of starting material. Cells were then diluted to the appropriate densities and added directly to the compound-spotted 384-well plates. […] At the time when compound was added (t0), initial cell number was assessed via a viability assay (Cell Titer-Glo) by quantifying the level of luminescence generated by ATP present in viable cells. After 72 h, cell viability of compound-treated cells was assessed via Cell Titer-Glo and luminescence measurement. The apoptotic response to Compound 1 was assessed by quantifying the activities of caspase 3 and caspase 7 (Caspase 3/7-Glo) in treated cells and DMSO control cells. […]

[3] = tested on: AGS; conditions: Homo sapiens, Gastric, CTNNB1 (G43E), KRAS (G12D), β-catenin Active

Compound: C[C@]1(C(N)=O)CC[C@@H](n2c(Nc3c(Cl)cc(Cl)cc3Cl)nc3cnc(N[C@@H]4CCOC[C@H]4F)nc32)CC1 [Compound 1, cis-4-[2-{[(3S,4R)-3-fluorooxan-4-yl]amino}-8-(2,4,6-trichloroanilino)-9H-purin-9-yl]-1-methyl cyclohexane-1-carboxamide]
- IC50 [1]: 9 nM
- IC50 [2]: 36 nM
- IC50 [3]: 28 nM
